Test results published in ChEMBL document CHEMBL1201862, “PubChem BioAssay data set” (2004).
Active and inactive are the calls of the source.

Key:
[1] = target: Luciferin 4-monooxygenase (Photinus pyralis, UniProt P08659); assay: firefly luciferase enzyme inhibitors, dose response, biochemical, luminescence (AID 1891)
[2] = Luminescence Cell-Based Dose Confirmation HTS to Identify Inhibitors of Platelet Dense Granule Release. [Related pubchem assays: 1663 (Primary HTS), 1678 (Summary of Project)]; format: functional
[3] = target: T1, Zinc finger protein mex-5 (Caenorhabditis elegans, UniProt Q9XUB2); assay: MEX-5/TCR-2 RNA interaction inhibitors, dose response, biochemical, C. elegans, fluorescence polarization (AID 1960)
T1 sequence (Q9XUB2 whole entry): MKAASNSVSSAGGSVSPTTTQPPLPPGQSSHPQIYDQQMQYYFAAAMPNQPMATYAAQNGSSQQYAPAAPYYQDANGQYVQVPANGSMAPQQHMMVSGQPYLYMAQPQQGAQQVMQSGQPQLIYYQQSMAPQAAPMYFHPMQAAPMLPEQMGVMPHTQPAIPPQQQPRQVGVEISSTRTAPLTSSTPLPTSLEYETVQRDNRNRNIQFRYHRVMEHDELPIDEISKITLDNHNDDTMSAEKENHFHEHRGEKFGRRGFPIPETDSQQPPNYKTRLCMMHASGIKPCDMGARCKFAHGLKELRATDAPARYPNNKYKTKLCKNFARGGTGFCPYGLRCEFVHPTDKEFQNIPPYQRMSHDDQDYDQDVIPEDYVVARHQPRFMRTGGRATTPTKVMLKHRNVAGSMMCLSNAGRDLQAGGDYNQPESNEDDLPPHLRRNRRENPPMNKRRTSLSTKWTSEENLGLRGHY

[4] = target: T2, RNA-binding protein pos-1 (Caenorhabditis elegans, UniProt G5EF15); assay: inhibitors of POS-1/mex-3 RNA binding, dose response, biochemical, fluorescence polarization (AID 1964);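 further: purified POS-1 fused to maltose binding protein made in E. coli; potency of compounds blocking POS-1 binding to fluorescent RNA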
T2 sequence (G5EF15 whole entry): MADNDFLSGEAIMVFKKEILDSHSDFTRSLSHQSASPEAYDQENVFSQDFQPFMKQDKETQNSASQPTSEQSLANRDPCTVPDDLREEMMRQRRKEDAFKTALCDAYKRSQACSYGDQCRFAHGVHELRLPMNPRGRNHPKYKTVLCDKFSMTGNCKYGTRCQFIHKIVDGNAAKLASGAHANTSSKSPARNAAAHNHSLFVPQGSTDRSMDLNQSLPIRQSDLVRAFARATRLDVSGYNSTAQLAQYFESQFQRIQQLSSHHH

Streptococcus = assay: Group A Streptococcus viability loss, dose response, counter-screen for streptokinase expression inhibitor project, luminescence, BacTiterGlo (AID 1915); format: functional, organism-based;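 further: potency for reduction of bacterial viability or growth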
[5] = system: Streptococcus sp. 'group A'; assay: growth inhibition of control SK(-) GAS strain, dose response, counter-screen for streptokinase expression inhibitor project, luminescence, kanamycin, BacTiterGlo, confirmation (AID 1900); format: functional, organism-based
Streptokinase A = target: T3, Streptokinase A (Streptococcus pyogenes serotype M1, UniProt P10520); assay: S. pyogenes streptokinase expression inhibitors, potency, dose response, plasminogen activation absorbance, OD405 (AID 1914); format: functional, Streptococcus pyogenes M1 GAS;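 further: secreted streptokinase activity via plasminogen activation per viability signal from cell pellet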
T3 sequence (P10520 whole entry): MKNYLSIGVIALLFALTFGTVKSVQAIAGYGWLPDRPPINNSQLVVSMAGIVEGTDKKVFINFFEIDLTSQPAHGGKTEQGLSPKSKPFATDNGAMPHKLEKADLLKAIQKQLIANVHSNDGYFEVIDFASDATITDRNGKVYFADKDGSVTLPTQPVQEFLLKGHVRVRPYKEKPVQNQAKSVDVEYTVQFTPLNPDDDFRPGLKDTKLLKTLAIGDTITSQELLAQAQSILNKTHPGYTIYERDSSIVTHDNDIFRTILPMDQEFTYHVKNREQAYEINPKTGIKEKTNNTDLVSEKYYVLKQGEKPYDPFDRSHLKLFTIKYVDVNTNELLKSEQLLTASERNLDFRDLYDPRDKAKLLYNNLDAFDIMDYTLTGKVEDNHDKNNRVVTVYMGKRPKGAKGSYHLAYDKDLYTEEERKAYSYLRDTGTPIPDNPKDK

Cytochrome P450 2D6 = Cytochrome P450 2D6 (Homo sapiens, UniProt P10635);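 further: CYP2D6 member of a cytochrome P450 panel assay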
Chain of Cytochrome P450 2D6 (P10635 whole entry): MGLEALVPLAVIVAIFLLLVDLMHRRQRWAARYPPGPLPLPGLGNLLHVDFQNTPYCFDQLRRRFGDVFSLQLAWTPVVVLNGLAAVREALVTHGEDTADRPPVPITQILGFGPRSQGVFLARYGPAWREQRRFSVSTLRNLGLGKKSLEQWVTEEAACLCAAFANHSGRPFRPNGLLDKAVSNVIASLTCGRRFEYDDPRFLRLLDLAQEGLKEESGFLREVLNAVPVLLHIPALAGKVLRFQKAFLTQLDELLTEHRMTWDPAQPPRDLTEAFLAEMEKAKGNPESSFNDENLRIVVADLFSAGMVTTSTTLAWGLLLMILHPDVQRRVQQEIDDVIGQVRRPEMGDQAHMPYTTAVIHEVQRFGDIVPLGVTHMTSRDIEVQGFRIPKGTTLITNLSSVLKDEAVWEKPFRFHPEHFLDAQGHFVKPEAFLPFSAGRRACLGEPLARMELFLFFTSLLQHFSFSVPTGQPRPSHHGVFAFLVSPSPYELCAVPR

Cytochrome P450 2C19 = Cytochrome P450 2C19 (Homo sapiens, UniProt P33261); assay: Cytochrome panel assay with activity outcomes. Panel member name: p450-cyp2c19 Compounds with AC50 equal or less than 10 uM are considered active; format: functional; details: read-out: AC50
Chain of Cytochrome P450 2C19 (P33261 whole entry): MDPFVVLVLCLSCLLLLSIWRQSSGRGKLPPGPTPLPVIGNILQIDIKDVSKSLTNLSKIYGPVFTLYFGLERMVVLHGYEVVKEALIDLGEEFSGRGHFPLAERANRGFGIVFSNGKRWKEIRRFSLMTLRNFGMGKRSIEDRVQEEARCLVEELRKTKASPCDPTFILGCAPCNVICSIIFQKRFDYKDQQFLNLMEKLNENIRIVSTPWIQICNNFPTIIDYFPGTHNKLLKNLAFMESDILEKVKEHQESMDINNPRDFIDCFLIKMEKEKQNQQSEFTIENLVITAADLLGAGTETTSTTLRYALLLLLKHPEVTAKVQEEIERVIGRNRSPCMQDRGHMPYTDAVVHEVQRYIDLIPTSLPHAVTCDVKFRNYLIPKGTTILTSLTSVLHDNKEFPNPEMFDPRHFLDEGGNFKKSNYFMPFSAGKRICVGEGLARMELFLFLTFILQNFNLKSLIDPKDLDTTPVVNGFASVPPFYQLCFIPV

[6] = inhibitors of SNCA 5'UTR-driven reporter translation, confirmation, H4 neuroglioma cells, luminescence (AID 1988); format: functional, cell-based
[7] = Luminescence Cell-Based Dose Response HTS to Identify Inhibitors of 5'UTR Stem-Loop Driven Prion Protein mRNA Translation in H4 Neuroglioblastoma Cells. [Related pubchem assays: 1827 (Project Summary), 1813 (Primary HTS)]; format: functional
[8] = inhibitors of firefly luciferase expression or activity, dose response, H4 neuroglioma cells, luminescence (AID 1990); format: functional, cell-based
[9] = inhibitors of intracellular T. cruzi replication, confirmation, NIH3T3 host cells, beta-gal luminescence (AID 2044); format: functional, cell-based;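 further: intracellular parasites grown in NIH/3T3 mouse fibroblasts as host cells; luminescent beta-galactosidase reporter signal from transgenic T. cruzi replicating inside host cells; inhibitors lower the luminescence signal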
[10] = cytotoxicity toward NIH3T3 fibroblasts, dose response, counter-screen, cell-based, ATP luminescence, mouse fibroblasts (AID 2010); format: functional;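 further: cells exposed to compound for about 90 hours before reading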
Cytochrome P450 1A2 = target: T4, Cytochrome P450 1A2 (Homo sapiens, UniProt P05177);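 further: PubChem cytochrome P450 panel assay, CYP1A2 panel member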
T4 sequence (P05177 whole entry): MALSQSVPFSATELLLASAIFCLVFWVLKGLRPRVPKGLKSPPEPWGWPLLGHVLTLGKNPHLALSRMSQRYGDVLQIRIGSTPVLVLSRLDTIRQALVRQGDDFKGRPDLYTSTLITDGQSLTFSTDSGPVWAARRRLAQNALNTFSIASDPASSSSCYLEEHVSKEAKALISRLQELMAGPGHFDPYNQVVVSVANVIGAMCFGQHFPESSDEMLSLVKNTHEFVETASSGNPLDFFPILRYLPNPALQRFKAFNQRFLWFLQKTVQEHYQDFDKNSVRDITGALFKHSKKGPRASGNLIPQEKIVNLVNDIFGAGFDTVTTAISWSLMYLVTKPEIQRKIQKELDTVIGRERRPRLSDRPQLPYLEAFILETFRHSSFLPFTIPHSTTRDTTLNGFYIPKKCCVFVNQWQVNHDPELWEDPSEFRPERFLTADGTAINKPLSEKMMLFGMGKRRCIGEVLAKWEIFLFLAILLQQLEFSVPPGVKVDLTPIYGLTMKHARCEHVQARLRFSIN

Cytochrome P450 2C9 = Cytochrome P450 2C9 (Homo sapiens, UniProt P11712)
Chain of Cytochrome P450 2C9 (P11712 whole entry): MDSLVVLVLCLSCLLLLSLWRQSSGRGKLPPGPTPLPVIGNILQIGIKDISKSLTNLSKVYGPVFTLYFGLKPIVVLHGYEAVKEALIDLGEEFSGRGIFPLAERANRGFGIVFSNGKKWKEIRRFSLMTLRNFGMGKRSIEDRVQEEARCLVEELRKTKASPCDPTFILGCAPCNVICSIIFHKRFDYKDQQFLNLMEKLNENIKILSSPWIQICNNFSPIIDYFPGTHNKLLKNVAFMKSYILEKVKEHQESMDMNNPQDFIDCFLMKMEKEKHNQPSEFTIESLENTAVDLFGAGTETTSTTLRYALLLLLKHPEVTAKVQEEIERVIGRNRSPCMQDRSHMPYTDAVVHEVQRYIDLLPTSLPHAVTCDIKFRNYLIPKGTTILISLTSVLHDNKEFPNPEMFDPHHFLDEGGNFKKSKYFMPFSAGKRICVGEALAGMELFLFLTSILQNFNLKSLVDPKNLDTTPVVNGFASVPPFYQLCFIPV

Cytochrome P450 3A4 = Cytochrome P450 3A4 (Homo sapiens, UniProt P08684);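 further: CYP3A4 tested as one member of a cytochrome P450 panel screen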
Chain of Cytochrome P450 3A4 (P08684 whole entry): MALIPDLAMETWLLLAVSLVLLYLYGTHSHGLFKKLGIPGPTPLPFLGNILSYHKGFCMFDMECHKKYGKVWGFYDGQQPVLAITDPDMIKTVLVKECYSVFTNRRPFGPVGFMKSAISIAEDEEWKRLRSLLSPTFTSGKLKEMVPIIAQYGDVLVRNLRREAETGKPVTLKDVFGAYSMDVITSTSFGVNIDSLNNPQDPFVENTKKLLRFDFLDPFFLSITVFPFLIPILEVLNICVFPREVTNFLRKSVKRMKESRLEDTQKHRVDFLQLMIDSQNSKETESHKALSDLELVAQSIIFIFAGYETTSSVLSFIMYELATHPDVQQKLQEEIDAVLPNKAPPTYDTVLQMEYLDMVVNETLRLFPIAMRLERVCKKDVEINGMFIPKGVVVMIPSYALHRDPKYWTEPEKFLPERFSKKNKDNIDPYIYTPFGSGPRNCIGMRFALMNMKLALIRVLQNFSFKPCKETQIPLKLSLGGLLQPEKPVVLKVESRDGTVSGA

Chain of Luciferin 4-monooxygenase (P08659 whole entry): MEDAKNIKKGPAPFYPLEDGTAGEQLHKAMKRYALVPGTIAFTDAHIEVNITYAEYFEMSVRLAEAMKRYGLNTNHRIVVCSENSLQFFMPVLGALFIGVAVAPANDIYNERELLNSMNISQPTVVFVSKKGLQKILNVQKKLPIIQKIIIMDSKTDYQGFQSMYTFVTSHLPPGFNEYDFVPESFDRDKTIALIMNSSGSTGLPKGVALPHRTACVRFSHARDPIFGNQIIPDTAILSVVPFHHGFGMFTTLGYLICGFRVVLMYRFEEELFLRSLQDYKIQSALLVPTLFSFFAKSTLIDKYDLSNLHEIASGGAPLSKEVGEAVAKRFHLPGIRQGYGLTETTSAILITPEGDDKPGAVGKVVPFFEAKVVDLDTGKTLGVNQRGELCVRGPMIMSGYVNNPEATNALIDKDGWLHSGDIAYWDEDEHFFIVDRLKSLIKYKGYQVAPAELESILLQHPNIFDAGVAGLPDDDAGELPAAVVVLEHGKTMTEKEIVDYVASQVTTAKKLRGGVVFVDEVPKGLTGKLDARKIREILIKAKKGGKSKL

Cc1ccc(CN(C(=O)c2csnn2)C(C(=O)NC2CCCC2)c2ccc(C)o2)cc1 (configuration not stated)
EC50 [1]: 67.6 µM (active)
EC50 [2]: > 112 µM (not active)

O=C(CN1CCC(n2nnc3cc(F)ccc32)CC1)NCCc1ccccc1
EC50 [3]: > 300 µM (not active)
EC50 [4]: > 300 µM (not active)

CC(C)n1nc(C(=O)Nc2ccccc2N2CCOCC2)c2ccccc2c1=O
EC50 [1]: > 112 µM (not active)
EC50 [2]: 26.7 µM (active)

COC(=O)c1cccc([N+](=O)[O-])c1CN1CCCC(C(N)=O)C1 (configuration not stated)
EC50 [1]: > 112 µM (not active)
EC50 [2]: > 112 µM (not active)

CCc1nnc(NS(=O)(=O)c2ccc(NCc3cc(Cl)cc(Cl)c3O)cc2)s1
EC50 (Streptococcus): > 150 µM (not active)
EC50 [5]: 29.5 µM (active)
EC50 (Streptokinase A): 50.8 µM (active)

CCOCCn1c(CN(Cc2ccccc2)Cc2ccccc2)nc2c1c(=O)[nH]c(=O)n2C
AC50 (Cytochrome P450 2D6): 39.8 µM (inconclusive)
AC50 (Cytochrome P450 2C19): 17.8 µM (inconclusive)

O=C(COc1ccc(Cl)cc1)Nc1ccc(Cc2ccncc2)cc1
EC50 [1]: > 112 µM (not active)
EC50 [2]: > 112 µM (not active)

COc1cc2c(cc1OC)-c1cc(NC3CCCCC3)nc(=O)n1CC2
EC50 [6]: 33.2 µM (active)
EC50 [7]: > 120 µM (not active)
EC50 [8]: 20 µM (active)
EC50 [1]: > 112 µM (not active)
EC50 [2]: 2.24 µM (active)

O=[N+]([O-])c1cc(S(=O)(=O)Nc2cccc(Cl)c2)ccc1N=Nc1c(O)[nH]c2ccccc12
EC50 (Streptococcus): 22.2 µM (active)
EC50 [5]: 1.69 µM (active)
EC50 (Streptokinase A): 27.4 µM (active)
EC50 [9]: 1.31 µM (active)
EC50 [10]: > 60 µM (not active)

COc1cccc(Cn2c(=O)cnc3cnc(N4CCN(C)CC4)nc32)c1
AC50 (Cytochrome P450 2D6): 20 µM (inconclusive)
AC50 (Cytochrome P450 1A2): 25.1 µM (inconclusive)
AC50 (Cytochrome P450 2C9): 25.1 µM (inconclusive)

C=CCOc1cccc(C2C(C(=O)c3ccc(C)o3)=C(O)C(=O)N2c2nnc(C)s2)c1 (configuration not stated)
EC50 [3]: 210 µM (active)
EC50 [4]: > 300 µM (not active)

O=S(=O)(Nc1cccc(-c2ccc(N3CCOCC3)nn2)c1)c1ccc(Cl)c(Cl)c1
EC50 (Streptococcus): 116 µM (active)
EC50 [5]: 12.6 µM (active)
EC50 (Streptokinase A): 23.5 µM (active)

O=C(NC1CCCCC1)C(Cc1ccccc1)N1C(=O)C2C3CCC(C3)C2C1=O (configuration not stated)
AC50 (Cytochrome P450 2D6): 31.6 µM (inconclusive)
AC50 (Cytochrome P450 2C9): 0.1 µM (inconclusive)

COc1ccc(Nc2nc3ccccc3nc2NS(=O)(=O)c2cccs2)c(OC)c1
EC50 [3]: 49.7 µM (inconclusive)
EC50 [4]: 5.66 µM (active)

COc1ccccc1CNC(=O)CSc1nc(=O)n(Cc2ccncc2)c2c1CCC2
EC50 (Streptococcus): > 150 µM (not active)
EC50 [5]: > 150 µM (not active)
EC50 (Streptokinase A): > 150 µM (not active)

Brc1cc(-c2ccccc2)nc(-c2ccccc2)n1
EC50 (Streptococcus): > 150 µM (not active)
EC50 [5]: > 150 µM (not active)
EC50 (Streptokinase A): > 150 µM (not active)

COc1ccccc1-n1c(O)cc(=O)nc1SCC(=O)Nc1ccc(C)cc1
EC50 (Streptococcus): 118 µM (active)
EC50 [5]: 29.9 µM (active)
EC50 (Streptokinase A): > 150 µM (not active)

Cc1nn(C(C)C(=O)N2CCc3ccccc3C2)c(=O)c2cc3occc3n12 (configuration not stated)
EC50 [1]: > 112 µM (not active)
EC50 [2]: > 112 µM (not active)

COc1cccc(Oc2c(C)oc3c(CN4CCCCC4)c(O)ccc3c2=O)c1
EC50 [1]: > 112 µM (not active)
EC50 [2]: 19.2 µM (active)

COC(=O)C1=C(C)N=C2SCCC(=O)N2C1c1ccc(OC(=O)c2ccco2)cc1 (configuration not stated)
EC50 [1]: > 112 µM (not active)
EC50 [2]: > 112 µM (not active)

CCOc1cc(/C=C(\C#N)c2nc3ccccc3[nH]2)ccc1OC(C)C(=O)O (configuration not stated)
EC50 [3]: 50.5 µM (active)
EC50 [4]: 78.5 µM (active)

N#Cc1cc(NC2CCCC2)c([N+](=O)[O-])cc1C#N
EC50 [3]: 41.8 µM (active)
EC50 [4]: > 300 µM (not active)

CC1(C)CC(=O)C2=C(C1)OC(N)=C(C#N)C21C(=O)N(CN2CCOCC2)c2ccccc21 (configuration not stated)
EC50 [3]: > 300 µM (not active)
EC50 [4]: > 300 µM (not active)

CCS(=O)(=O)c1ccc2oc(Nc3ccccc3Cl)nc2c1
EC50 [1]: 1.75 µM (active)
EC50 [2]: 7.7 µM (active)

CCC(C)(C)NC(=O)C(c1cccn1C)N(C(=O)Cn1nnc2ccccc21)c1ccc(OC)cc1 (configuration not stated)
EC50 [3]: > 300 µM (not active)
EC50 [4]: > 300 µM (not active)

O=C(Nc1ccc(Cl)cn1)c1ccc(-c2ccc(Cl)c(Cl)c2)o1
EC50 [1]: > 112 µM (not active)
EC50 [2]: > 112 µM (not active)

CC(=O)Nc1nnc(S(=O)(=O)N2CCN(c3ccc([N+](=O)[O-])cc3Cl)CC2)s1
EC50 (Streptococcus): > 150 µM (not active)
EC50 (Streptokinase A): > 150 µM (not active)

CN1C(=O)C(=Cc2cc3ccccc3nc2O)C(=O)N(C)C1=O
EC50 [3]: > 300 µM (not active)
EC50 [4]: > 300 µM (not active)

CN(C)C(=O)c1ccc(-c2ccc3ncnc(Nc4ccccc4)c3c2)cc1
AC50 (Cytochrome P450 2D6): 12.6 µM (inconclusive)
AC50 (Cytochrome P450 3A4): 7.94 µM (inconclusive)

COc1cccc(N2C(=O)NC(=O)/C(=C/c3ccc4c(c3)Cc3ccccc3-4)C2=O)c1
EC50 [3]: > 300 µM (not active)
EC50 [4]: > 300 µM (not active)

COCCOC(=O)c1c(C)nc(SCC(=O)Nc2ccc(C)cc2)c(C#N)c1-c1ccco1
EC50 (Streptococcus): 53.5 µM (active)
EC50 (Streptokinase A): > 150 µM (not active)

O=C(N/C(=C/c1cccs1)c1nc2ccccc2[nH]1)c1ccccc1
AC50 (Cytochrome P450 2D6): 28.2 µM (inconclusive)
AC50 (Cytochrome P450 1A2): 25.1 µM (inconclusive)
AC50 (Cytochrome P450 2C9): 7.94 µM (inconclusive)
